From patent US20250179062A1, “CRYSTALLINE FORMS OF A PYRROLOPYRIDINE-ANILINE COMPOUND” (NFLECTION THERAPEUTICS, INC., priority 2021, published 2025)
Entries after “also recorded” stand apart in the source; their conditions may differ. Read-outs that look alike come from different tables or passages of the source. Blank lines part the entries; values can stand above or below the molecule they belong to.

What was measured:
[1] = Dynamic vapor sorption (DVS); format: physicochemical
Description: Automated vapor sorption (VS) data were collected on a Surface Measurement System DVS Intrinsic instrument. Samples were not dried prior to analysis. Sorption and desorption data were collected over a range from 5% to 95% RH at 10% RH increments under a nitrogen purge. The equilibrium criterion used for analysis was less than 0.0100% weight change in 5 minutes with a maximum equilibration time of 3 hours. Data were not corrected for the initial moisture content of the samples. Post-analysis sample was submitted for XRPD analysis.

[2] = Physical stability of crystalline forms (XRPD after stress); format: physicochemical
Description: Physical stability of Form A was investigated.
Physical stability of Form F was investigated.
Physical stability of Form B was investigated.
Physical stability of Form C was investigated.
Because the solids of Form H were originally isolated damp with excess MeOH (see Example 7), an attempt to remove the excess solvent under vacuum (i.e., room temperature for 2 days) was performed.

[3] = Binary competitive interconversion slurry experiments; format: physicochemical; conditions: between room temperature and 50° C.
Description: Alternatively, interconversion experiments were performed to determine the thermodynamic relationship between polymorphs. […] Clarendon Press, Oxford, 2006; and Polymorphism in Pharmaceutical Solids. Brittain, Harry G. ed. Marcek Dekker, Inc. New York. 1999]. […] The choice of solvent affects the kinetics of polymorph conversion and not the thermodynamic relationship between polymorphic forms [Gu, C H., Young, V. Jr., Grant, D J. J. Pharm. Sci. 2001, 90 (11): 1878-1890].
Slurries were prepared at ambient and 50° C. using binary mixtures of Forms A/F, A/E, and E/F. Saturated solutions of the compound of formula (I) were generated in EtOAc or ACN at RT or 50° C. The solutions were filtered and approximately equivalent quantities of two of the polymorphs were added to the solutions. The samples were slurried for several days at the given temperature and the solids were collected by positive pressure filtration, or centrifugation/decantation. The solids were harvested and analyzed by an XRPD.

[4] = Approximate solubility, visually estimated by solvent aliquot addition; format: physicochemical; conditions: ambient temperature; for solubility: thermodynamic from solid
Description: A lot of the compound of formula (I) containing a mixture of Forms A and B was used for this study. Measured aliquots of a variety of solvents were added to weighed amounts of the material with sonication until the solution appeared clear or the maximum volume of the vial was reached. Solubility was calculated based on the total solvent used to give a solution. […] Values are rounded to the nearest whole number. […] If dissolution occurred as determined by the visual assessment after the addition of the first aliquot, the value is reported as “>”.

[5] = clinical trials, systemic MEK inhibitor; cited from earlier work
[6] = Physical stability of crystalline forms (XRPD after stress); format: physicochemical; conditions: higher temperature (e.g., 178° C.)
[7] = 90% RH at ambient temperature over 7 days

Hygroscopicity term ([1]; 5-95% RH): limited hygroscopicity | post-DVS XRPD form ([1]; solid after DVS cycle): Form A | Physical stability [2, 7]: stable | Physical stability ([2]; one (1) day at ambient temperature under vacuum): stable
Structure (SMILES): Cn1c(Nc2ccc(I)cc2F)c(C(=O)NOCCO)c2cccnc21 [Form A]
Relative thermodynamic stability of anhydrous forms [3]: most thermodynamically stable form; also recorded: more stable relative to Form E or F

solubility ([4]; aqueous with cosolvent or surfactant or cyclodextrin, 1:1 THF/H2O (v/v) (aw = 1.04), lot containing mixture of Forms A and B, read-out: Solubility): 11000 µg/mL | solubility ([4]; aqueous with cosolvent or surfactant or cyclodextrin, 3:1 acetone/H2O (v/v) (aw = 0.85), lot containing mixture of Forms A and B, read-out: Solubility): 5000 µg/mL | Solubility term ([4]; in heptane, H2O, and toluene): low solubility | solubility ([4]; organic solvent or mixture, ACN, lot containing mixture of Forms A and B, read-out: Solubility): 2000 µg/mL | solubility ([4]; organic solvent or mixture, DCM, lot containing mixture of Forms A and B, read-out: Solubility): 6000 µg/mL | solubility ([4]; organic solvent or mixture, EtOAc, lot containing mixture of Forms A and B, read-out: Solubility): 3000 µg/mL | solubility ([4]; organic solvent or mixture, EtOH, lot containing mixture of Forms A and B, read-out: Solubility): 3000 µg/mL | solubility ([4]; organic solvent or mixture, MeOH, lot containing mixture of Forms A and B, read-out: Solubility): 11000 µg/mL | solubility ([4]; organic solvent or mixture, THF, lot containing mixture of Forms A and B, read-out: Solubility): 29000 µg/mL | solubility ([4]; organic solvent or mixture, acetone, lot containing mixture of Forms A and B, read-out: Solubility): 8000 µg/mL | solubility ([4]; organic solvent or mixture, heptane, lot containing mixture of Forms A and B, read-out: Solubility): < 1000 µg/mL | solubility ([4]; organic solvent or mixture, in acetone, ACN, DCM, EtOAc, EtOH, MeOH, 3:1 v/v acetone/H2O, and 1:1 v/v THF/H2O, read-out: Solubility term): 1000 to 20000 µg/mL | solubility ([4]; organic solvent or mixture, toluene, lot containing mixture of Forms A and B, read-out: Solubility): < 1000 µg/mL | solubility ([4]; water, H2O, lot containing mixture of Forms A and B, read-out: Solubility): < 1000 µg/mL
Structure (SMILES): Cn1c(Nc2ccc(I)cc2F)c(C(=O)NOCCO)c2cccnc21 [Compound of Formula (I)]

Structure (SMILES): Cn1c(Nc2ccc(I)cc2F)c(C(=O)NOCCO)c2cccnc21 [Form E]
Relative thermodynamic stability of anhydrous forms [3]: more thermodynamically stable than Form F but less stable than Form A; also recorded: more stable relative to Form F

Physical stability ([2]; about 42° C. for one day or about 45° C. for three days, under vacuum): slightly disordered
Structure (SMILES): Cn1c(Nc2ccc(I)cc2F)c(C(=O)NOCCO)c2cccnc21 [Form C]

Structure (SMILES): O=C(NOC[C@H](O)CO)c1ccc(F)c(F)c1Nc1ccc(I)cc1F [PD0325901]
Side effects [5]: one or more neurological side effects associated with ataxia, confusion, and syncope; also recorded: neurological side effects associated with ataxia, confusion, and syncope

Physical stability ([2]; under vacuum, room temperature for 2 days, damp solids with excess MeOH): disordered mixture of Form H and Form A
Structure (SMILES): Cn1c(Nc2ccc(I)cc2F)c(C(=O)NOCCO)c2cccnc21 [Form H]

Physical stability [2, 7]: stable | Physical stability ([2]; under vacuum at room temperature for 5 days): stable | Relative thermodynamic stability of anhydrous forms [3]: least thermodynamically stable form
Structure (SMILES): Cn1c(Nc2ccc(I)cc2F)c(C(=O)NOCCO)c2cccnc21 [Form F]

Physical stability ([2]; under vacuum at ambient temperature over 2 days): stable
Structure (SMILES): Cn1c(Nc2ccc(I)cc2F)c(C(=O)NOCCO)c2cccnc21 [Form B]
Physical stability ([2]; exposure to 45° C. (elevated temperature) under vacuum): disordered; also recorded: slightly disordered XRPD pattern with additional unidentified peaks | Form conversion by in situ variable temperature XRPD (vtXRPD) [6]: converts/crystallizes to anhydrous Form E
